Measured values: patent publication US20240238281A1, “PIPERAZINE DERIVATIVES AND APPLICATION THEREOF” (priority 2021, published 2024)
Entries after “also recorded” stand apart in the source; their conditions may differ. Read-outs that look alike come from different tables or passages of the source.

How the values were obtained:
MC3R = target: T1, MC3R (Homo sapiens, UniProt P41968); assay: In vitro activity of MCR receptors, intracellular cAMP signal (HEK293T/MCR cell line), MC3R; assay type: cell-based
T1 construct: expressed in transfected cells
T1 sequence (P41968 whole entry): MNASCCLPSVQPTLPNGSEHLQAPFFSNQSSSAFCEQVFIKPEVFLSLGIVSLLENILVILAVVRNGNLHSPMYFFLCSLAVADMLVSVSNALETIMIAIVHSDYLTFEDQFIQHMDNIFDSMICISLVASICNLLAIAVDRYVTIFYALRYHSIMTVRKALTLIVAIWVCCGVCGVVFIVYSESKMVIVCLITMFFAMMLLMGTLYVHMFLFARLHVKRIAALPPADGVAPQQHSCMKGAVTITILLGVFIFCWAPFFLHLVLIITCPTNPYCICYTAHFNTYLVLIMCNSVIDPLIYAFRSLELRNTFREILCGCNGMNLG
Method: (§1) Test purpose: to evaluate the agonistic effect of the compound on MCRs by detecting intracellular cAMP signal changes.
(§2) Cells were resuspended with 1×PBS+500 μM IBMX. 10 μL of the cell suspension was added into a 384-well plate to be tested, and the cell concentration was adjusted to 1×10^4 cells per well for later use. A pre-prepared solution of the compound to be tested was added, and dimethyl sulfoxide of the same volume was added to blank control wells. The test plate was centrifuged at 300 rpm for 1 minute, incubated at 37° C. for 30 minutes, and added with 5 μL of cAMP-d2 and 5 μL of a CAMP-cry antibody detection reagent. The test plate was centrifuged at 300 rpm for 1 minute, and incubated at room temperature for 60 minutes.

MDR1-MDCKII cells = assay: In vitro MDCK-MDR1 permeability; assay type: in vitro ADME; settings: MDR1-MDCKII permeability and efflux rating
Method: (§3) MDR1-MDCKII cells (from the Netherlands Cancer Institute) were inoculated onto a 96-plate (from Corning) with a cell density of 2.5×10^5 cells/mL, and cultured for 4-7 days to form a co-polymeric cell monolayer. A Hank's equilibrium salt buffer (pH=7.40±0.05) containing 10 mM of 4-hydroxyethyl piperazine ethanesulfonic acid was used as a transport buffer. The bidirectional transport of the test compound at a concentration of 2 μM was tested, and the concentration of DMSO in the incubation system was controlled below 1%. After sample loading, the cell plate was placed at 37±1° C. for inoculation with 5% CO2 under a saturated humidity condition for 150 minutes. All samples were subjected to quantitative analysis using the LC-MS/MS method.
(§4) The apparent permeability coefficient (Papp, cm/s), the efflux ratio, and the recovery rate were calculated using the following formula.
(§5) The apparent permeability coefficient (Papp, cm/s) was calculated using the following formula: […]
(§6) DC/dt was the cumulative concentration (μM/s) of the compound at the receiving end per unit time; Vr was the volume of the solution at the receiving end (the solution volumes at the top and base ends were 0.075 mL and 0.250 mL, respectively); A was the relative surface area of the cell monolayer (0.0804 cm^2); and C0 was the initial concentration (nM) of a test sample at the administration end or the peak area ratio of a control sample.
(§7) The efflux ratio was calculated using the following formula: […]
(§8) The recovery rate was calculated using the following formula: […]
(§9) C0 was the initial concentration (nM) of the test sample at the administration end or the peak area ratio of the control sample; Vd was the volume of the administration end (0.075 mL on the top side and 0.250 mL on the base side); Cd and Cr were the final concentrations (nM) of the test sample at the administration end and the receiving end, or the peak area ratios of the control sample , respectively.

MDR1 = assay: In vitro MDCK-MDR1 permeability; assay type: in vitro ADME; settings: dog, MDCK-MDR1, pH 7.4, MDR1-MDCKII monolayer, 2 μM, 150 minutes
Method: as §3, §4, §5, §6, §7, §8, §9

MC4R = target: T2, MC4R (Homo sapiens, UniProt P32245); assay: In vitro activity of MCR receptors, intracellular cAMP signal (HEK293T/MCR cell line), MC4R; assay type: cell-based; settings: cAMP, HEK293T/MCR cell line; read-out: MC4R EC50
T2 construct: expressed in transfected cells
T2 sequence (P32245 whole entry): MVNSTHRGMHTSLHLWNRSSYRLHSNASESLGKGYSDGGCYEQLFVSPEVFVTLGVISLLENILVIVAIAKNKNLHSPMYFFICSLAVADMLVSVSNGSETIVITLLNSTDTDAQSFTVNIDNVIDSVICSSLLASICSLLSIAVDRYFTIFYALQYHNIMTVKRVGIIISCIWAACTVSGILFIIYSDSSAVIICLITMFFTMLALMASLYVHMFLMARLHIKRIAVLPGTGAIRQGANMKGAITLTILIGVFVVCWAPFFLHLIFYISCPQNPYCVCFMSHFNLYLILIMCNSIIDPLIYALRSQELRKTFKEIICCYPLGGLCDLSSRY
Method: as §1
as §2, with “minutes. The test plate was placed in the Envision multifunctional microplate reader for reading, with a detection wavelength of 665/615 nm.” for “minutes.”

[1] = Pharmacokinetic parameters in rat plasma; assay type: in vivo, SD rats; settings: SD
Method: 4 healthy SD rats of 6-9 weeks old were selected and randomly divided into two groups, 2 rats in each group. One group was administered with the test compound via intravenous injection, with 5% DMSO+95% (a 10% HP-β-CD aqueous solution) as a solvent, and the other group was administered with the test compound by gavage, with a 50 mM citric acid buffer solution at pH=5 as a solvent. Plasma samples were collected from animals in both intravenous and intragastric groups at 0.083 hour, 0.25 hour, 0.5 hour, 1.0 hour, 2.0 hours, 4.0 hours, 6.0 hours, 8.0 hours and 24 hours after administration, respectively. Quantitative analysis of all biological samples was performed using an LC-MS/MS method, with WinNonlin™ Version 6.3 (Pharsight, Mountain View, CA) pharmacokinetic software, to calculate relevant pharmacokinetic parameters using a […] model linear logarithmic trapezoid method. AUCo-last represented an area under a plasma concentration time curve from a time point zero to a last time point where the concentration can be detected; p.o. represented oral administration; i.v. represented intravenous injection; T1/2 represented the half life; CL represented the clearance rate; Vd represented the apparent distribution volume; AUC0-last represented the area under the curve; Cmax represented the peak concentration; Tmax represented the peak time; and F % represented oral bioavailability.

MC5R = target: T3, MC5R (Homo sapiens, UniProt P33032); assay: In vitro activity of MCR receptors, intracellular cAMP signal (HEK293T/MCR cell line), MC5R; assay type: cell-based; settings: cAMP, HEK293T/MCR cell line; read-out: MC5R EC50
T3 construct: expressed in transfected cells
T3 sequence (P33032 whole entry): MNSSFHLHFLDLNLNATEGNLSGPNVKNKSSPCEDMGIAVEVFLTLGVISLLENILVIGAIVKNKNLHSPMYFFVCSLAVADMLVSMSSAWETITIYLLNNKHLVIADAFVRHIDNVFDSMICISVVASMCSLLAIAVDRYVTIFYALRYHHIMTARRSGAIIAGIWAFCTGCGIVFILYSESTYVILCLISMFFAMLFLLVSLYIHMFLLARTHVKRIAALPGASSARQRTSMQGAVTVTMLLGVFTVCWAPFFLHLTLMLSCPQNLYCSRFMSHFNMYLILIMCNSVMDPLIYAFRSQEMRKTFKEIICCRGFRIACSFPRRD
Method: as §1
as §2, with “minutes. The test plate was placed in the Envision multifunctional microplate reader for reading, with a detection wavelength of 665/615 nm.” for “minutes.”

[2] = Drug concentration in brain tissues of rats, oral gavage; assay type: in vivo; settings: SD, rat, p.o. 20 mg/kg
Method: 3.2 6 healthy SD rats of 6-9 weeks old were selected, and the test compound was administered by oral gavage (with a solvent of 50 mM citrate buffer solution, pH=5). Two animals were randomly selected at 0.5 hour, 1 hour and 4 hours after administration respectively, and plasma and brain tissue samples were collected for quantitative analysis of all biological samples using the LC-MS/MS method.

EC50 (MC3R): 4.21 µM
efflux ratio at 150 min, 2 μM (MDR1): 0.98
Papp A→B at 150 min, 2 μM (MDR1; pH 7.40): 13.5 ×10⁻⁶ cm/s
Papp B→A at 150 min, 2 μM (MDR1; pH 7.40): 13.2 ×10⁻⁶ cm/s
EC50 (MC4R): 0.012 µM
AUC(0-t) ([1]; iv, i.v. 2 mg/kg): 0.897 µM·h
Vd ([1]; iv, i.v. 2 mg/kg): 8 L/kg
clearance ([1]; iv, i.v. 2 mg/kg): 73 mL/min/kg
half-life ([1]; iv, i.v. 2 mg/kg): 1.5 h
bioavailability ([1]; p.o. 5 mg/kg, oral bioavailability): 37%
AUC(0-t) ([1]; po, p.o. 5 mg/kg): 0.796 µM·h
Cmax ([1]; po, p.o. 5 mg/kg): 195 nM
Tmax ([1]; po, p.o. 5 mg/kg): 1 h
EC50 (MC5R): > 10 µM
concentration at 0.5 h ([2]; brain, 0.5 hour, read-out: Brain drug concentration): 8600 nM
concentration at 1 h ([2]; brain, 1 hour, read-out: Brain drug concentration): 9680 nM
concentration at 4 h ([2]; brain, 4 hours, read-out: Brain drug concentration): 11400 nM
Kp uu at 0.5 h ([2]; brain/plasma, 0.5 hour): 1.5
Kp at 0.5 h ([2]; brain/plasma, 0.5 hour, read-out: Brain-to-blood ratio): 11
Kp uu at 1 h ([2]; brain/plasma, 1 hour): 1.5
Kp at 1 h ([2]; brain/plasma, 1 hour, read-out: Brain-to-blood ratio): 10.8
Kp uu at 4 h ([2]; brain/plasma, 4 hours): 1.3
Kp at 4 h ([2]; brain/plasma, 4 hours, read-out: Brain-to-blood ratio): 9.5
concentration at 0.5 h ([2]; plasma, 0.5 hour, read-out: Plasma drug concentration): 783 nM
concentration at 1 h ([2]; plasma, 1 hour, read-out: Plasma drug concentration): 899 nM
concentration at 4 h ([2]; plasma, 4 hours, read-out: Plasma drug concentration): 1200 nM
SMILES: C[C@@H]1CN(C(=O)[C@@H]2CN(C3CCOCC3)C[C@H]2c2ccc(F)cc2F)C[C@H](C)N1c1ccc(F)cc1 (single isomer, unassigned) [Compound 7]
Rating (MDR1-MDCKII cells): High permeability,; also recorded: low efflux
